pIC50: −log10 of the molar value.
Columns and labels:
EGFR (human) = EGFR (human) (UniProt P00533)
[1] = molecular target: EGFR (human), P00533 [L858R]
[2] = molecular target: EGFR (Human), P00533 [T790M/L858R]
[3] = molecular target: EGFR (Human), P00533 [Assessment of EGFR-Del T790M Dependent Cell Proliferation in BaF3 Cells]
[4] = molecular target: EGFR (Human), P00533 [T790M/L858R]; conditions: baf3

Sequence of EGFR (human), P00533 [L858R] (P00533 whole entry L858R, looked up): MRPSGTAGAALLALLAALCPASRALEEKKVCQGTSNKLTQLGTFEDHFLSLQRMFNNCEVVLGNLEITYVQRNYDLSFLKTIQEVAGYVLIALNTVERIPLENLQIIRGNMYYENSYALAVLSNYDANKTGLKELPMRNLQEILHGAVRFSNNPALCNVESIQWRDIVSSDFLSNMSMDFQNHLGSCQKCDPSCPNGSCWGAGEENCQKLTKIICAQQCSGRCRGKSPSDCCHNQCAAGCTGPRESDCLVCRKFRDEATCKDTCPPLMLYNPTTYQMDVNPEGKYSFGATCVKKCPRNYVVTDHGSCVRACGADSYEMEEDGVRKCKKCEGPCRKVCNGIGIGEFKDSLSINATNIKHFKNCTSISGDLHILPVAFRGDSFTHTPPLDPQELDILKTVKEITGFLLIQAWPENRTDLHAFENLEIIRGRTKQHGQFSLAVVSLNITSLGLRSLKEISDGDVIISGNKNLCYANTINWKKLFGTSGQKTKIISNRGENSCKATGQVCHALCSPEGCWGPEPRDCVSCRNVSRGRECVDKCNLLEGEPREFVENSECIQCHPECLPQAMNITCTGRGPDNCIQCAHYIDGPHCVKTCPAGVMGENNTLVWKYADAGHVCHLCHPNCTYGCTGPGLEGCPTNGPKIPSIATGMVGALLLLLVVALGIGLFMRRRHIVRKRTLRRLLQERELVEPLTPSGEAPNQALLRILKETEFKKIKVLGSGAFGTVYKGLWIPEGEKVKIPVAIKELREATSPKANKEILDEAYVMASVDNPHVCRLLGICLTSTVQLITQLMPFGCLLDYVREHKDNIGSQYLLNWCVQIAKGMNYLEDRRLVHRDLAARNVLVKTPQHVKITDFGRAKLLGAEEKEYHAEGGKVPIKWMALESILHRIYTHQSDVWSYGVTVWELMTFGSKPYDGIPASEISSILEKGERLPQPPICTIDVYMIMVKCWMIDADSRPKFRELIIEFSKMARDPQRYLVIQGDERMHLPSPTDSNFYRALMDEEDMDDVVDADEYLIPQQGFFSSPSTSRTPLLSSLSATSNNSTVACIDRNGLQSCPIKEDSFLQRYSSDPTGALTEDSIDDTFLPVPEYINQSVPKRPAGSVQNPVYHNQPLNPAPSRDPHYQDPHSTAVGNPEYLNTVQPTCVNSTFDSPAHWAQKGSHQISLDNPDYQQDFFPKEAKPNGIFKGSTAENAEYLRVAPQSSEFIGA
Sequence of EGFR (Human), P00533 [T790M/L858R] (P00533 whole entry T790M/L858R, looked up): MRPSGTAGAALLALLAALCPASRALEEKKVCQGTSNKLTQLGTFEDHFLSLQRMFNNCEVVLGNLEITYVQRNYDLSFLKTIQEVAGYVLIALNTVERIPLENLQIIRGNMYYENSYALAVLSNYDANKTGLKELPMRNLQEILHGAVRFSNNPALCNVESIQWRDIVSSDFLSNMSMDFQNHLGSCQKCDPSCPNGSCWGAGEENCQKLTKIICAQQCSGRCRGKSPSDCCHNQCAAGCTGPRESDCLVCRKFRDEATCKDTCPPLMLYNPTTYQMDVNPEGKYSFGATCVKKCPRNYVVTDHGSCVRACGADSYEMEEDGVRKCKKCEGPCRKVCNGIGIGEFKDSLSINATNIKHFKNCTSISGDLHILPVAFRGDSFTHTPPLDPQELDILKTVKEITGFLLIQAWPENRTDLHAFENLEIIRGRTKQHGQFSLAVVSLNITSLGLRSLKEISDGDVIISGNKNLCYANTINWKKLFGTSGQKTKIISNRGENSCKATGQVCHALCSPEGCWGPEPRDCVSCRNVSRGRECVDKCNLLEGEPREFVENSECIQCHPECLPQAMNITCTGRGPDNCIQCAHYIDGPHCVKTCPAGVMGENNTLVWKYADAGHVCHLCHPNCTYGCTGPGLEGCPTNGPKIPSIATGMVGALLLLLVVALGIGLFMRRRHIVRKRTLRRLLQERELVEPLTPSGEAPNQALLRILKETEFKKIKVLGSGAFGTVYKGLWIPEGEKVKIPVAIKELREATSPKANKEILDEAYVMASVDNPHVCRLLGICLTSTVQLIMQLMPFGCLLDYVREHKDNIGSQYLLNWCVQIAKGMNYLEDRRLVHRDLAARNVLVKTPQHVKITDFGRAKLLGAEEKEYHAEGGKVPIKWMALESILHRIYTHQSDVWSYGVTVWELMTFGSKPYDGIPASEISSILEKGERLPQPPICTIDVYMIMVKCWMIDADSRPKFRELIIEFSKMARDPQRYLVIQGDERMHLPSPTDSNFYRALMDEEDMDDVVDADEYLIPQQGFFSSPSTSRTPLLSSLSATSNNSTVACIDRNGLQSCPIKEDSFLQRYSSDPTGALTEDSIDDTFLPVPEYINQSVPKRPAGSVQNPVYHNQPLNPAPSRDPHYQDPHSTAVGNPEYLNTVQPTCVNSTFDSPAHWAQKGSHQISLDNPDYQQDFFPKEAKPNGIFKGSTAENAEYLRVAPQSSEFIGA
Sequence of EGFR (Human), P00533 [Assessment of EGFR-Del T790M Dependent Cell Proliferation in BaF3 Cells] (P00533 whole entry, looked up, stated change not applied): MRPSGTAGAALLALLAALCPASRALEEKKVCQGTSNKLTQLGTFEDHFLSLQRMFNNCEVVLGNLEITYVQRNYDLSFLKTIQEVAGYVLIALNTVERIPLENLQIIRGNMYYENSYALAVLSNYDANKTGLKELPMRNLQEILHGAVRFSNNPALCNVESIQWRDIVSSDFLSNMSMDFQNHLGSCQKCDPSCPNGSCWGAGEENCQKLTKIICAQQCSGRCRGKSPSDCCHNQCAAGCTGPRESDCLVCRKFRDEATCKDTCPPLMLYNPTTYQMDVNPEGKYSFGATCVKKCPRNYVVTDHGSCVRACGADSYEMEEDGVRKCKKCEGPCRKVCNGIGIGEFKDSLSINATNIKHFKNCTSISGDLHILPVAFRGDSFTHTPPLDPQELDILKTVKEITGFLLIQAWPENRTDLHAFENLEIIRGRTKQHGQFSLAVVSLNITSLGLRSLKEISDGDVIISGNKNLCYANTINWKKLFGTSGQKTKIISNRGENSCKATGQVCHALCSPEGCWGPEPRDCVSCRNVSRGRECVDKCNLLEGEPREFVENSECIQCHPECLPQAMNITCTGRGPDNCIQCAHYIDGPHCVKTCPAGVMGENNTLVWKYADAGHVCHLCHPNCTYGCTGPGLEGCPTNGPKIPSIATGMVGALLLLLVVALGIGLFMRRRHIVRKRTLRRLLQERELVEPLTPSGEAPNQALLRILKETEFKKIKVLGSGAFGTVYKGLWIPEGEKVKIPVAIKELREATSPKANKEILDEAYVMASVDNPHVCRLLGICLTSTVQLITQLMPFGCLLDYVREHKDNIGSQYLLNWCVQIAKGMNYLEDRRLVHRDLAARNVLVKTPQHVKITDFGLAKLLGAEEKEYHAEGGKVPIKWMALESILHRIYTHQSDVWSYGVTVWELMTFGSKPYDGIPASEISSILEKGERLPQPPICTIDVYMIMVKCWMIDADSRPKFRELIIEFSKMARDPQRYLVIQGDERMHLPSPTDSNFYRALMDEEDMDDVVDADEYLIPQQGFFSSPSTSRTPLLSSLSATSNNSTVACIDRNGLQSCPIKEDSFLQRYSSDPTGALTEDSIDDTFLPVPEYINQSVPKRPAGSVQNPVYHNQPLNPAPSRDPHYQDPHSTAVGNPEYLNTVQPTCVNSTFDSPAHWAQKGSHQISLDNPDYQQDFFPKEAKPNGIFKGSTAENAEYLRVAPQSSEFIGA
Sequence of EGFR (human) (P00533 whole entry, looked up): as the sequence (P00533 whole entry, looked up, stated change not applied) above

SMILES | pIC50 (EGFR (human)) | pIC50 [1] | pIC50 [2] | pIC50 [3] | pIC50 [4]
Cc1ccc(NC(=O)CCl)cc1Nc1ncc(Cl)c(Nc2ccccc2P(C)(C)=O)n1 | > 7.30 | > 7.30 | > 7.30 | > 7.30 | > 7.30
C=CC(=O)Nc1cc(Nc2ncc(Cl)c(Nc3ccccc3P(C)(C)=O)n2)c(OC)cc1OC1CCN(C)C1 (stereo not given) | > 7.30 | > 7.30 | > 7.30 | > 7.30 | > 7.30
C=CC(=O)Nc1cc(Nc2ncc(Cl)c(Nc3ccccc3P(C)(C)=O)n2)c(OC)cc1N1CC[C@H](N(C)C)C1 | > 7.30 | > 7.30 | > 7.30 | > 7.30 | > 7.30
COc1cc(N2CCCC2)c(NC(=O)C#CCCN2CCN(C)CC2)cc1Nc1ncc(Cl)c(Nc2ccccc2P(C)(C)=O)n1 | > 7.30 | > 7.30 | > 7.30 | 6.60 to 7.00 | 6.60 to 7.00
C=CC(=O)Nc1cc(Nc2ncc(Cl)c(Nc3ccccc3P(C)(C)=O)n2)c(OC)cc1OC1CCCN(C)C1 (stereo not given) | > 7.30 | > 7.30 | > 7.30 | > 7.30 | > 7.30
COc1cc(N2CCOCC2)c(NC(=O)C#CCCN(C)C)cc1Nc1ncc(Cl)c(Nc2ccccc2P(C)(C)=O)n1 | > 7.30 | > 7.30 | > 7.30 | > 7.30 | > 7.30
C=CC(=O)Nc1cc(Nc2ncc(Cl)c(Nc3ccccc3P(C)(C)=O)n2)c(OC)cc1N1CCC(N2CCCCC2)C1 (stereo not given) | > 7.30 | > 7.30 | > 7.30 | > 7.30 | > 7.30
C=CC(=O)Nc1cc(Nc2ncc(Cl)c(Nc3ccccc3P(C)(C)=O)n2)c(OC)cc1N1CCC(N2CCCC2)CC1 | 7.00 to 7.30 | > 7.30 | > 7.30 | > 7.30 | 6.60 to 7.00
C=C(CN1CCC(N2CCOCC2)CC1)C(=O)Nc1ccc(OC)c(Nc2ncc(Cl)c(Nc3ccccc3P(C)(C)=O)n2)c1 | > 7.30 | > 7.30 | > 7.30 | > 7.30 | > 7.30
C=CC(=O)Nc1cc(Nc2ncc(Cl)c(Nc3ccccc3P(C)(C)=O)n2)c(OC)cc1C#CCCN(C)C | > 7.30 | > 7.30 | > 7.30 | > 7.30 | > 7.30
C=CC(=O)Nc1cc(Nc2ncc(Cl)c(Nc3ccccc3P(C)(C)=O)n2)c(OC)cc1OC(COC)CN1CCC1 (stereo not given) | > 7.30 | > 7.30 | > 7.30 | > 7.30 | > 7.30
COc1ccc(NC(=O)/C=C/Cl)cc1Nc1ncc(Cl)c(Nc2ccccc2P(C)(C)=O)n1 | > 7.30 | > 7.30 | > 7.30 | > 7.30 | > 7.30
C=C(CN1CCN(C(C)C)CC1)C(=O)Nc1ccc(OC)c(Nc2ncc(Cl)c(Nc3ccccc3P(C)(C)=O)n2)c1 | 7.00 to 7.30 | > 7.30 | > 7.30 | > 7.30 | > 7.30

Results, then the compound that gave them:

pIC50 (EGFR (human)) | pIC50 [1] | pIC50 [2] | pIC50 [3] | pIC50 [4] | SMILES
> 7.30 | > 7.30 | > 7.30 | > 7.30 | > 7.30 | C=C(CN1CCC(O)C1)C(=O)Nc1ccc(OC)c(Nc2ncc(Cl)c(Nc3ccccc3P(C)(C)=O)n2)c1 (stereo not given)
> 7.30 | > 7.30 | > 7.30 | > 7.30 | > 7.30 | C=C(CN1CCOCC1)C(=O)Nc1ccc(OC)c(Nc2ncc(Cl)c(Nc3ccccc3P(C)(C)=O)n2)c1
> 7.30 | > 7.30 | > 7.30 | > 7.30 | > 7.30 | C=CC(=O)Nc1cc(Nc2ncc(Cl)c(Nc3ccccc3P(C)(C)=O)n2)c(OC)cc1C#CCN(C)C1CCCC1
> 7.30 | > 7.30 | > 7.30 | 7.00 to 7.30 | 6.60 to 7.00 | C=CC(=O)Nc1cc(Nc2ncc(Cl)c(Nc3ccccc3P(C)(C)=O)n2)c(OC)cc1N1CCC(N2CCCN(C)CC2)CC1
> 7.30 | > 7.30 | > 7.30 | > 7.30 | > 7.30 | COc1cc(F)c(NC(=O)C#CCCN2CCCCC2)cc1Nc1ncc(Cl)c(Nc2ccccc2P(C)(C)=O)n1
